{
  "source": "patent US8604019B2",
  "about": "“Compounds for the treatment and prophylaxis of respiratory syncytial virus disease” (Hoffman-La Roche Inc., priority 2011, dated 2013)",
  "data": [
    {"test_system": "RSV Long strain (ATCC, catalog number: VR-26)", "test": "Viral cytopathic effect (CPE) assay, anti-RSV activity", "assay_type": "cell-based", "conditions": "human respiratory syncytial virus, 144 h, 6 days, cell viability by Cell Counting kit-8", "description": "Viral cytopathic effect (CPE) assay: To measure anti-RSV activity of compounds, 96-well plates are seeded with 6×10^3 cells per well in Dulbecco's modified Eagle's medium (DMEM) containing 10% fetal bovine serum (FBS). Cells are infected the next day with sufficient RSV Long strain (ATCC, catalog number: VR-26) to produce an approximately 80-90% cytopathic effect after 6 days, in the presence of serial half-log diluted compound in a total volume of 200 μL per well. The viability of cells is assessed after 6 days using Cell Counting kit-8 (Dojindo Molecular Technologies). The absorbance at 450 nm and referenced at 630 nm is measured to determine 50% effective concentration (EC50).", "units": {"EC50": "µM"}, "values": [
      {"molecule": "Cc1cc2nc(N3CC[S+]([O-])c4ccccc4C3)nc(NC3CNC[C@H]3F)c2s1", "note": "(mixture of isomers) [Example 4-1, N—[trans-(±)-4-Fluoropyrrolidin-3-yl]-6-methyl-2-(1-oxido-2,3-dihydro-1,4-benzothiazepin-4(5H)-yl)thieno[3,2-d]pyrimidin-4-amine]", "EC50": 0.03},
      {"molecule": "NCC(F)(F)CNc1nc(N2CCS(=O)(=O)c3ccccc3C2)nc2ccsc12", "note": "[Example 1-1, N-[2-(1,1-Dioxido-2,3-dihydro-1,4-benzothiazepin-4(5H)-yl)thieno[3,2-d]pyrimidin-4-yl]-2,2-difluoropropane-1,3-diamine]", "EC50": 0.215},
      {"molecule": "NCCCNc1nc(N2CC[S+]([O-])c3ccccc3C2)nc2ccsc12", "note": "(centres unmarked) [Example 1-2, N-[2-(1-Oxido-2,3-dihydro-1,4-benzothiazepin-4(5H)-yl)thieno[3,2-d]pyrimidin-4-yl]propane-1,3-diamine]", "EC50": 0.255},
      {"molecule": "Cc1cc2nc(N3CCNc4ccccc4C3)nc(NCCCN)c2s1", "note": "[Example 1-3, N-[6-Methyl-2-(1,2,3,5-tetrahydro-4H-1,4-benzodiazepin-4-yl)thieno[3,2-d]pyrimidin-4-yl]propane-1,3-diamine]", "EC50": 3.12},
      {"molecule": "NCCCNc1nc(N2CCNc3ccccc3C2)nc2ccsc12", "note": "[Example 1-4, N-[2-(1,2,3,5-Tetrahydro-4H-1,4-benzodiazepin-4-yl)thieno[3,2-d]pyrimidin-4-yl]propane-1,3-diamine]", "EC50": 9.47},
      {"molecule": "NCCCNc1nc(N2CCSc3ccccc3C2)nc2ccsc12", "note": "[Example 1-5, N-[2-(2,3-Dihydro-1,4-benzothiazepin-4(5H)-yl)thieno[3,2-d]pyrimidin-4-yl]propane-1,3-diamine]", "EC50": 0.384},
      {"molecule": "NCCCNc1nc(N2CCOc3ccccc3C2)nc2ccsc12", "note": "[Example 1-6, N-[2-(2,3-Dihydro-1,4-benzoxazepin-4(5H)-yl)thieno[3,2-d]pyrimidin-4-yl]propane-1,3-diamine]", "EC50": 2.21},
      {"molecule": "NCCCNc1nc(N2CCC(F)(F)c3ccccc3C2)nc2ccsc12", "note": "[Example 1-7, N-[2-(5,5-Difluoro-1,3,4,5-tetrahydro-2H-2-benzazepin-2-yl)thieno[3,2-d]pyrimidin-4-yl]propane-1,3-diamine]", "EC50": 0.669},
      {"molecule": "NCC1(CNc2nc(N3CCC(F)(F)c4ccccc4C3)nc3ccsc23)COC1", "note": "[Example 1-8, N-{[3-(Aminomethyl)oxetan-3-yl]methyl}-2-(5,5-difluoro-1,3,4,5-tetrahydro-2H-2-benzazepin-2-yl)thieno[3,2-d]pyrimidin-4-amine]", "EC50": 0.022},
      {"molecule": "NCCCNc1nc(N2CCCc3ccccc3C2)nc2ccsc12", "note": "[Example 1-9, N-[2-(1,3,4,5-Tetrahydro-2H-2-benzazepin-2-yl)thieno[3,2-d]pyrimidin-4-yl]propane-1,3-diamine]", "EC50": 0.667},
      {"molecule": "Cc1cc2nc(N3CCSc4ccccc4C3)nc(NCCCN)c2s1", "note": "[Example 1-10, N-[2-(2,3-Dihydro-1,4-benzothiazepin-4(5H)-yl)-6-methylthieno[3,2-d]pyrimidin-4-yl]propane-1,3-diamine]", "EC50": 0.735},
      {"molecule": "Cc1cc2nc(N3CCOc4ccccc4C3)nc(NCCCN)c2s1", "note": "[Example 1-11, N-[2-(2,3-Dihydro-1,4-benzoxazepin-4(5H)-yl)-6-methylthieno[3,2-d]pyrimidin-4-yl]propane-1,3-diamine]", "EC50": 1.35},
      {"molecule": "Cc1cc2nc(N3CCC(F)(F)c4ccccc4C3)nc(NCCCN)c2s1", "note": "[Example 1-12, N-[2-(5,5-Difluoro-1,3,4,5-tetrahydro-2H-2-benzazepin-2-yl)-6-methylthieno[3,2-d]pyrimidin-4-yl]propane-1,3-diamine]", "EC50": 1.01},
      {"molecule": "Cc1cc2nc(N3CCCc4ccccc4C3)nc(NCCCN)c2s1", "note": "[Example 1-13, N-[6-Methyl-2-(1,3,4,5-tetrahydro-2H-2-benzazepin-2-yl)thieno[3,2-d]pyrimidin-4-yl]propane-1,3-diamine]", "EC50": 1.44},
      {"molecule": "Cc1cc2nc(N3CCS(=O)(=O)c4ccccc4C3)nc(NCCCN)c2s1", "note": "[Example 1-14, N-[2-(1,1-Dioxido-2,3-dihydro-1,4-benzothiazepin-4(5H)-yl)-6-methylthieno[3,2-d]pyrimidin-4-yl]propane-1,3-diamine]", "EC50": 0.073},
      {"molecule": "NCCCNc1nc(N2CCS(=O)(=O)c3ccccc3C2)nc2ccsc12", "note": "[Example 1-15, N-[2-(1,1-Dioxido-2,3-dihydro-1,4-benzothiazepin-4(5H)-yl)thieno[3,2-d]pyrimidin-4-yl]propane-1,3-diamine]", "EC50": 0.076},
      {"molecule": "NC1(CNc2nc(N3CCS(=O)(=O)c4ccccc4C3)nc3ccsc23)COC1", "note": "[Example 2-1, N-[(3-Aminooxetan-3-yl)methyl]-2-(1,1-dioxido-2,3-dihydro-1,4-benzothiazepin-4(5H)-yl)thieno[3,2-d]pyrimidin-4-amine]", "EC50": 0.007},
      {"molecule": "NCC1(Nc2nc(N3CCS(=O)(=O)c4ccccc4C3)nc3ccsc23)COC1", "note": "[Example 2-2, N-[3-(aminomethyl)oxetan-3-yl]-2-(1,1-dioxido-2,3-dihydro-1,4-benzothiazepin-4(5H)-yl)thieno[3,2-d]pyrimidin-4-amine]", "EC50": 0.897},
      {"molecule": "NC1(CNc2nc(N3CC[S@@+]([O-])c4ccccc4C3)nc3ccsc23)COC1", "note": "[Example 2-3, N-[(3-Aminooxetan-3-yl)methyl]-2-[(1R)-1-oxido-2,3-dihydro-1,4-benzothiazepin-4(5H)-yl]thieno[3,2-d]pyrimidin-4-amine]", "EC50": 0.068},
      {"molecule": "NC1(CNc2nc(N3CC[S@+]([O-])c4ccccc4C3)nc3ccsc23)COC1", "note": "[Example 2-4, N-[(3-aminooxetan-3-yl)methyl]-2-[(1S)-1-oxido-2,3-dihydro-1,4-benzothiazepin-4(5H)-yl]thieno[3,2-d]pyrimidin-4-amine]", "EC50": 0.003},
      {"molecule": "Cc1cc2nc(N3CC[S+]([O-])c4ccccc4C3)nc(NCC3(N)COC3)c2s1", "note": "(centres unmarked) [Example 3-1, N-[(3-Aminooxetan-3-yl)methyl]-6-methyl-2-(1-oxido-2,3-dihydro-1,4-benzothiazepin-4(5H)-yl)thieno[3,2-d]pyrimidin-4-amine]", "EC50": 0.026},
      {"molecule": "Cc1cc2nc(N3CC[S+]([O-])c4ccccc4C3)nc(NCC(F)CN)c2s1", "note": "(centres unmarked) [Example 3-2, 2-Fluoro-N-[6-methyl-2-(1-oxido-2,3-dihydro-1,4-benzothiazepin-4(5H)-yl)thieno[3,2-d]pyrimidin-4-yl]propane-1,3-diamine]", "EC50": 0.468},
      {"molecule": "Cc1cc2nc(N3CC[S+]([O-])c4ccccc4C3)nc(NCCN)c2s1", "note": "(centres unmarked) [Example 3-3, N-[6-Methyl-2-(1-oxido-2,3-dihydro-1,4-benzothiazepin-4(5H)-yl)thieno[3,2-d]pyrimidin-4-yl]ethane-1,2-diamine]", "EC50": 0.086},
      {"molecule": "Cc1cc2nc(N3CC[S+]([O-])c4ccccc4C3)nc(NCC3(CN)COC3)c2s1", "note": "(centres unmarked) [Example 3-4, N-{[3-(Aminomethyl)oxetan-3-yl]methyl}-6-methyl-2-(1-oxido-2,3-dihydro-1,4-benzothiazepin-4(5H)-yl)thieno[3,2-d]pyrimidin-4-amine]", "EC50": 0.006},
      {"molecule": "Cc1cc2nc(N3CC[S+]([O-])c4ccccc4C3)nc(NCCCN)c2s1", "note": "(centres unmarked) [Example 3-5, N-[6-Methyl-2-(1-oxido-2,3-dihydro-1,4-benzothiazepin-4(5H)-yl)thieno[3,2-d]pyrimidin-4-yl]propane-1,3-diamine]", "EC50": 0.232},
      {"molecule": "Cc1cc2nc(N3CC[S+]([O-])c4ccccc4C3)nc(NC3CCNC3)c2s1", "note": "(centres unmarked) [Example 4-2, 6-Methyl-2-(1-oxido-2,3-dihydro-1,4-benzothiazepin-4(5H)-yl)-N-(pyrrolidin-3-yl)thieno[3,2-d]pyrimidin-4-amine]", "EC50": 0.676}
    ]},
    {"test_system": "RSV infection", "test": "not given", "conditions": "intramuscularly at 15 mg/kg once a month for the duration of RSV season, selected infants; cited from earlier work", "values": [
      {"molecule": "palivizumab: a humanized monoclonal antibody against RSV fusion (F) protein approved for prophylaxis in high-risk infants", "reduction of hospitalization rate caused by RSV infection": "45-55%"}
    ]},
    {"test_system": "established RSV infection", "test": "not given", "conditions": "in vivo; cited from earlier work", "values": [
      {"molecule": "palivizumab: a humanized monoclonal antibody against RSV fusion (F) protein approved for prophylaxis in high-risk infants", "efficacy in treatment of established RSV infection": "not effective"}
    ]},
    {"test_system": "RSV", "test": "not given", "conditions": "Phase III clinical trials; cited from earlier work", "values": [
      {"molecule": "motavizumab: A newer version monoclonal antibody designed as potential replacement of palivizumab", "benefit over palivizumab": "failed to show additional benefit over palivizumab"}
    ]}
  ]
}
